Each block holds one compound with its values, some of them ahead of it. Calls of active or inactive are those of the source. No cut-off for these calls is given here.
Assays:
[1] = target: T1, Sigma intracellular receptor 2 (Rattus norvegicus, UniProt Q5U3Y7); assay: Displacement of [3H]-di-o-tolylguanidine from sigma2 receptor in rat liver membrane by solid scintillation counting method; type: cell membranes
T1 sequence (Q5U3Y7 whole entry): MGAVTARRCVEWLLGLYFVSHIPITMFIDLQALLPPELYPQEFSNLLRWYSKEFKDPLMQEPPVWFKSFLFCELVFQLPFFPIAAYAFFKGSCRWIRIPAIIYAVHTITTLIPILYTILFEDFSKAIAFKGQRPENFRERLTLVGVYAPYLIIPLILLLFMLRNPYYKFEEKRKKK

[2] = target: 5-hydroxytryptamine receptor 2B (Homo sapiens) (UniProt P41595); assay: Binding affinity to human 5HT2B receptor
[3] = target: Adrenergic receptor alpha-1 (Homo sapiens) (UniProt P35348+P25100+P35368); assay: Binding affinity to human alpha1 adrenergic receptor; type: protein assay
[4] = tested on: DU-145; assay: Antiproliferative activity against androgen-negative human DU145 cells assessed as inhibition of cell growth at 10 uM measured after 72 hrs by SRB assay; type: functional, cell-based
[5] = target: Sodium-dependent serotonin transporter (Homo sapiens) (UniProt P31645); assay: Inhibition of serotonin transporter (unknown origin)
[6] = target: Cytochrome P450 2C9 (Homo sapiens, UniProt P11712); assay: Inhibition of CYP2C9 (unknown origin) at 1 uM; type: ADME
[7] = Selectivity ratio of Ki for sigma2 receptor in rat liver membrane to Ki for sigma1 receptor in guinea pig brain membrane; type: cell membranes
[8] = target: T2, 5-hydroxytryptamine receptor 1A (Homo sapiens) (UniProt P08908); assay: Binding affinity to human 5HT1A receptor
T2 sequence (whole entry): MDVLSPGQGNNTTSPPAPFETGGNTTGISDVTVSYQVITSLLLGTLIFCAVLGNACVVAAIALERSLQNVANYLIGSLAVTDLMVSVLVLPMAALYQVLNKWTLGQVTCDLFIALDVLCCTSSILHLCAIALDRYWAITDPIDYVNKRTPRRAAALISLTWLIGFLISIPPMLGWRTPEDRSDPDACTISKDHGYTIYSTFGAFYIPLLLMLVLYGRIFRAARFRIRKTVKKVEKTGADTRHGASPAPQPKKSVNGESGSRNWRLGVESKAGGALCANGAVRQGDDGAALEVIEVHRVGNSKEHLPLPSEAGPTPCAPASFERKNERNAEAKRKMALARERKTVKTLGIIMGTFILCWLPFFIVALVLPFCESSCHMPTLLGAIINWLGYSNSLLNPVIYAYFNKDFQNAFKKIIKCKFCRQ

[9] = target: Mu-type opioid receptor (Homo sapiens) (UniProt P35372); assay: Binding affinity to human mu opioid receptor
[10] = target: Cytochrome P450 3A4 (Homo sapiens, UniProt P08684); assay: Inhibition of CYP3A4 (unknown origin) at 1 uM; type: ADME
[11] = target: T3, Alpha-2A adrenergic receptor (Homo sapiens) (UniProt P08913); assay: Binding affinity to human alpha2A adrenergic receptor
T3 sequence (whole entry): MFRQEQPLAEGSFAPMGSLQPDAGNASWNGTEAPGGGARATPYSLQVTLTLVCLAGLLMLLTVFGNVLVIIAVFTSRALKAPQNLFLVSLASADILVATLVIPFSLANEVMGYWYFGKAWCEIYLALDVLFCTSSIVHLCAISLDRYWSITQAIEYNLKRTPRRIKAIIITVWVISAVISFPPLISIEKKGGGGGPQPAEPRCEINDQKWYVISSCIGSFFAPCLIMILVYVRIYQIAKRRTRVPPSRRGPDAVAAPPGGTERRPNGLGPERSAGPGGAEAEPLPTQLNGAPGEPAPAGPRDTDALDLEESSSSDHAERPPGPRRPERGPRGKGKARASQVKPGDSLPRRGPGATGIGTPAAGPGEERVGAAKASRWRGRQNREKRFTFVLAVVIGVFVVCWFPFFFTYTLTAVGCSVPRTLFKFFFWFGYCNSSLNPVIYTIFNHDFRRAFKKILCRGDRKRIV

[12] = tested on: Mus musculus; assay: Antiallodynic activity in CD-1 mouse assessed as analgesia at 40 mg/kg, sc administered 30 mins prior to capsaicin stimulation and measured after 15 mins by von Frey test (reference value: 97.3 %); type: functional; conditions: time 45 min, 0.75 h
[13] = target: Kappa-type opioid receptor (Homo sapiens) (UniProt P41145); assay: Binding affinity to human kappa opioid receptor
[14] = target: Sodium-dependent noradrenaline transporter (Homo sapiens) (UniProt P23975); assay: Inhibition of noradrenaline transporter (unknown origin)
[15] = target: Delta-type opioid receptor (Homo sapiens) (UniProt P41143); assay: Binding affinity to human delta opioid receptor
[16] = target: Sodium-dependent dopamine transporter (Homo sapiens) (UniProt Q01959); assay: Inhibition of dopamine transporter (unknown origin)
[17] = target: T4, Cytochrome P450 1A2 (Homo sapiens, UniProt P05177); assay: Inhibition of CYP1A2 (unknown origin) at 1 uM; type: ADME
T4 sequence (P05177 whole entry): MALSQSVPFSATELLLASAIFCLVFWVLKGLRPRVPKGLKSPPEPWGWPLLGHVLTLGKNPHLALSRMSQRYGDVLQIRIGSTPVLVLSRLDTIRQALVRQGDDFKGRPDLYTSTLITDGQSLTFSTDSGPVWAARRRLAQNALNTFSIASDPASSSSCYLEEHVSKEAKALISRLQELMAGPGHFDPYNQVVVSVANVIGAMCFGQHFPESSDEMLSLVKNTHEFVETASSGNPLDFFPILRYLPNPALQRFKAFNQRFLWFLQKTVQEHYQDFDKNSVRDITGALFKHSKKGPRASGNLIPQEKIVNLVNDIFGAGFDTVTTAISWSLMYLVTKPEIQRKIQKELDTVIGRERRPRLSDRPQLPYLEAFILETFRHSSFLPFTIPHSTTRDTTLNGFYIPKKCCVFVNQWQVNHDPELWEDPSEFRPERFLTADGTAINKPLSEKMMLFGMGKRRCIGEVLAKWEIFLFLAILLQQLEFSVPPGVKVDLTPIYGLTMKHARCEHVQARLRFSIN

[18] = target: Sigma non-opioid intracellular receptor 1 (Cavia porcellus, UniProt Q60492)
[19] = target: Cytochrome P450 2C19 (Homo sapiens, UniProt P33261); assay: Inhibition of CYP2C19 (unknown origin) at 1 uM; type: ADME
[20] = target: Glutamate [NMDA] receptor (Homo sapiens) (UniProt Q05586+Q12879+Q13224+O15399+O60391+Q14957+Q8TCU5); assay: Displacement of [3H]-(+)-MK801 from PCP binding site of NMDA receptor (unknown origin); type: protein-complex assay; conditions: dose 1.0 µM
[21] = target: Sigma intracellular receptor 2 (Rattus norvegicus) (UniProt Q5U3Y7); assay: Displacement of [3H]-di-o-tolylguanidine from sigma2 receptor in rat liver membrane at 1 uM by solid scintillation counting method; type: cell membranes
[22] = target: Sigma non-opioid intracellular receptor 1 (Cavia porcellus) (UniProt Q60492); assay: Displacement of [3H]-(+)-pentazocine from sigma1 receptor in guinea pig brain membrane at 1 uM measured after 120 mins by solid scintillation counting method; type: cell membranes
Sequence of Sigma non-opioid intracellular receptor 1 (Cavia porcellus) (Q60492 whole entry): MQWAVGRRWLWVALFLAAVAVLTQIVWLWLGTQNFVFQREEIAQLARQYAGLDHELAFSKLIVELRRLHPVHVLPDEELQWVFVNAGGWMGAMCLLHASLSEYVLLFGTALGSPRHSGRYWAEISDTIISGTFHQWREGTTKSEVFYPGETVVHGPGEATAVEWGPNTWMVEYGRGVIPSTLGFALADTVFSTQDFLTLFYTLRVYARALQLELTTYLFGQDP

Sequence of Cytochrome P450 2C9 (P11712 whole entry): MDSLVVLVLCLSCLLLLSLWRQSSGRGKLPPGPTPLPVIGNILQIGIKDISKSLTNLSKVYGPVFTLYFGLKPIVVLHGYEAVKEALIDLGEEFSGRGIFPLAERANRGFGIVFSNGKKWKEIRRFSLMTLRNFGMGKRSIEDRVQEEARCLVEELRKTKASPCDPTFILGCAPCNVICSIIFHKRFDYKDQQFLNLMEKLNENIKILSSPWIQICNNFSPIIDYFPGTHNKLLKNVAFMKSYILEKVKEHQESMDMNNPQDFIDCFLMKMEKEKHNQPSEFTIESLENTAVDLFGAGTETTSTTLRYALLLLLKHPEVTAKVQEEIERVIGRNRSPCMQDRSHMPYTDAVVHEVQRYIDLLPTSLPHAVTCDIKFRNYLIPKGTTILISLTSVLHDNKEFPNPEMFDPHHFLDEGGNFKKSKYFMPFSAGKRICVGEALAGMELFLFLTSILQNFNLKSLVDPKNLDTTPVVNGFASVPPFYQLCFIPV
Sequence of Mu-type opioid receptor (Homo sapiens) (P35372 whole entry): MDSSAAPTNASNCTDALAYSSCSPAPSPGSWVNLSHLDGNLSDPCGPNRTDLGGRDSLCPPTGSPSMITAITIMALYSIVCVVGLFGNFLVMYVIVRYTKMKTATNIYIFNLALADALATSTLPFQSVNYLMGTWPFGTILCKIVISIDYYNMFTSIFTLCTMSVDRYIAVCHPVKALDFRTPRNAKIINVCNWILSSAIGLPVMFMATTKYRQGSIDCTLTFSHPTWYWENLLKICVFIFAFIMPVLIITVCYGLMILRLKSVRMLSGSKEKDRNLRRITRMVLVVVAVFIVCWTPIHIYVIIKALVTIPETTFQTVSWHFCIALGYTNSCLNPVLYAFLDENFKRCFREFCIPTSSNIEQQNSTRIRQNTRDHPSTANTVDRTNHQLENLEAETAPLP
Sequence of Sodium-dependent serotonin transporter (Homo sapiens) (P31645 whole entry, looked up): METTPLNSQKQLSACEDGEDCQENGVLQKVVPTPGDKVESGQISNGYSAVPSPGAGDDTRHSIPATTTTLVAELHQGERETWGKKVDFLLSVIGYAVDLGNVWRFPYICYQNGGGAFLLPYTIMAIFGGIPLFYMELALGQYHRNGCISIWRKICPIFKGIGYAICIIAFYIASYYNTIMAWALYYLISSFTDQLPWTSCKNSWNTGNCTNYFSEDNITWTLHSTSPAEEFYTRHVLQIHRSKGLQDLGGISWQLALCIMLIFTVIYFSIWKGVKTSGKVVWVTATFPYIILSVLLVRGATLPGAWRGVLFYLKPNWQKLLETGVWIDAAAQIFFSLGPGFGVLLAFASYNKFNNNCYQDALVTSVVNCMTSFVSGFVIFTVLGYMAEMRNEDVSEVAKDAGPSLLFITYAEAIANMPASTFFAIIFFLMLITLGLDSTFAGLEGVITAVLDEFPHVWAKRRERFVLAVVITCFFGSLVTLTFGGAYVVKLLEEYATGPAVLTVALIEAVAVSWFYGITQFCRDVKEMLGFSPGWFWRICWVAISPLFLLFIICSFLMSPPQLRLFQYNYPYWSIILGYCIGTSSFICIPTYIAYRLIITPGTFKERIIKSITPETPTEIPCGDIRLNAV
Sequence of Sodium-dependent dopamine transporter (Homo sapiens) (Q01959 whole entry): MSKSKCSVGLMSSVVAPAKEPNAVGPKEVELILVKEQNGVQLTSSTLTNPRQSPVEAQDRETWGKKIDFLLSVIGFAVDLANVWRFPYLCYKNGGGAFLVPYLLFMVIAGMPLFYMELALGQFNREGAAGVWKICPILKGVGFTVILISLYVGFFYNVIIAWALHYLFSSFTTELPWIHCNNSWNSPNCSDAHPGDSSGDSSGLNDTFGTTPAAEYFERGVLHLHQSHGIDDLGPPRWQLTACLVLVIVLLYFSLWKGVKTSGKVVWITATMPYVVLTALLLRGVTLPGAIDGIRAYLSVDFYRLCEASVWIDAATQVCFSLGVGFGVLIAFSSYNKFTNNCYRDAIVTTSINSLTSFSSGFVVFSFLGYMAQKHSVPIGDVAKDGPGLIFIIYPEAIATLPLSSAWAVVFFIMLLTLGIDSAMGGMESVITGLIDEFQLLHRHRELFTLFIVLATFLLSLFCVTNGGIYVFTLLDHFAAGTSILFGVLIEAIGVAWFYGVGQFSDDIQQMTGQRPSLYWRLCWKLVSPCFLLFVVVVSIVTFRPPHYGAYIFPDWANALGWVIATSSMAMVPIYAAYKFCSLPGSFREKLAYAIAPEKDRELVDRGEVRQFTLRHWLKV
Sequence of 5-hydroxytryptamine receptor 2B (Homo sapiens) (P41595 whole entry): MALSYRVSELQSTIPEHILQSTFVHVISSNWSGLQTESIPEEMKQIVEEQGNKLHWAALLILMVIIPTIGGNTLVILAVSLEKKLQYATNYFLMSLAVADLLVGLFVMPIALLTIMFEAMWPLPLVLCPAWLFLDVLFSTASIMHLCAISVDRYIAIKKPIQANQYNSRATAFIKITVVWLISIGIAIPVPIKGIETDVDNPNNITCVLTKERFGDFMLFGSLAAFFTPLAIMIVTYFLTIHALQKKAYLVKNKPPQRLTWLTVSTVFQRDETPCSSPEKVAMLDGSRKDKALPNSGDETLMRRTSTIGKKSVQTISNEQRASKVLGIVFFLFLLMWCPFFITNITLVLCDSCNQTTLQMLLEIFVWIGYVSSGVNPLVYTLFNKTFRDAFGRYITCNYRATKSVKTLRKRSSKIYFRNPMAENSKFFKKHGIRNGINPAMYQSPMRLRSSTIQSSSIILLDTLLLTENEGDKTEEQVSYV
Sequence of Delta-type opioid receptor (Homo sapiens) (P41143 whole entry): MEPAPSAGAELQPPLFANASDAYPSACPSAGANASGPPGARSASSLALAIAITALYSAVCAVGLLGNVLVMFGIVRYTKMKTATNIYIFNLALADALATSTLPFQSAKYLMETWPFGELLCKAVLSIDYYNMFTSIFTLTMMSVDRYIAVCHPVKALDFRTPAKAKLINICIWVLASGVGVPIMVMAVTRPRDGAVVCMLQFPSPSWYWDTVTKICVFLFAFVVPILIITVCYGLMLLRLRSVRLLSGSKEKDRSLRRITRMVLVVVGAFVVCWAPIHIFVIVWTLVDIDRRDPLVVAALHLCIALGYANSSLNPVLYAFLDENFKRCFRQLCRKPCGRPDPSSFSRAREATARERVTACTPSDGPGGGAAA
Sequence of Cytochrome P450 3A4 (P08684 whole entry): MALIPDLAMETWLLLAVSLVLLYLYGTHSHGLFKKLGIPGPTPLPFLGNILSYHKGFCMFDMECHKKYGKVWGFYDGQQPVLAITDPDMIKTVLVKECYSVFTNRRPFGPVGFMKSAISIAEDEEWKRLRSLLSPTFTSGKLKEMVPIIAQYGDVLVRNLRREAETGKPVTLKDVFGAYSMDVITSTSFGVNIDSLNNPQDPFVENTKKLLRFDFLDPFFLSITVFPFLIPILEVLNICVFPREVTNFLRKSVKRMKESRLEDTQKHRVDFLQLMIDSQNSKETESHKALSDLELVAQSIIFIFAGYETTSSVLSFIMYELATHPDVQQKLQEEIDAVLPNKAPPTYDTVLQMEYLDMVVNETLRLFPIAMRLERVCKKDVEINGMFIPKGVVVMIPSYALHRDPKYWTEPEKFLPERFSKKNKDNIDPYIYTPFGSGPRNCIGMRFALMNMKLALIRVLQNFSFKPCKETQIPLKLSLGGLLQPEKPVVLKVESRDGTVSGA
Sequence of Sigma non-opioid intracellular receptor 1 (Q60492 whole entry): as the sequence (Q60492 whole entry) above
Sequence of Cytochrome P450 2C19 (P33261 whole entry): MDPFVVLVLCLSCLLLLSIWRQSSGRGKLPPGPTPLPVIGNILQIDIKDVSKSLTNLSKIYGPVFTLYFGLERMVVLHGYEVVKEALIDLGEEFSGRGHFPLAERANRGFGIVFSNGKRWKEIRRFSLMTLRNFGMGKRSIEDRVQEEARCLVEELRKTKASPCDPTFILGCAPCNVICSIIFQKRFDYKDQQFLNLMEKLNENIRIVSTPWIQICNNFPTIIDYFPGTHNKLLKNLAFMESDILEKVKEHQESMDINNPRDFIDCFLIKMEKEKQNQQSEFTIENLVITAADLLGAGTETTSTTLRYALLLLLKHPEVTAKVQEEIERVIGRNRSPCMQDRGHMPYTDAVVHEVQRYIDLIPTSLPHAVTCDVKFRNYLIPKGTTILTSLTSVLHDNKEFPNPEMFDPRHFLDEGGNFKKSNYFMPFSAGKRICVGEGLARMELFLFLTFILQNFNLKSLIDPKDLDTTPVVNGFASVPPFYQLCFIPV
Sequence of Kappa-type opioid receptor (Homo sapiens) (P41145 whole entry): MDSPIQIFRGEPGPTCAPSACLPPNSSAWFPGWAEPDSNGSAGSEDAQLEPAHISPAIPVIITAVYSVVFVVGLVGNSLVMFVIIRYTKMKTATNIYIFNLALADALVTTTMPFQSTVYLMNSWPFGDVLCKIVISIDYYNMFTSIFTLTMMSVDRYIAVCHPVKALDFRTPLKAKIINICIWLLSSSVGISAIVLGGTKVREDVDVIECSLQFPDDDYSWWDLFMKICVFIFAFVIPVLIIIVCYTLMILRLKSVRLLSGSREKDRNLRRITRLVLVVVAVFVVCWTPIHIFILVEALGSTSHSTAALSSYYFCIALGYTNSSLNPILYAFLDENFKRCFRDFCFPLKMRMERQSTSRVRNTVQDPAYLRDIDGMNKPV

Compound: c1ccc(CNCC[C@@H]2CCC[C@H](c3ccccc3)O2)cc1
Ki [1]: 0.378 µM
Activity [2]: inactive
Activity [3]: inactive
Activity [4]: Active
inhibition [5]: inactive
inhibition (INH) [6]: Not Active
Ratio Ki [7]: 236
Activity [8]: inactive
Activity [9]: inactive
inhibition (INH) [10]: Not Active
Activity [11]: inactive
Activity [12]: 21%
Activity [13]: inactive
inhibition [14]: inactive
Activity [15]: inactive
inhibition [16]: inactive
inhibition (INH) [17]: Not Active
Ki [18]: 0.0016 µM
inhibition (INH) [19]: Not Active

Compound: c1ccc(CNCC[C@H]2CCC[C@@H](c3ccccc3)O2)cc1
Ki [1]: 0.426 µM
Activity [2]: inactive
Activity [3]: inactive
Activity [4]: Active
inhibition [5]: inactive
inhibition (INH) [6]: Not Active
Activity [8]: inactive
Activity [9]: inactive
inhibition (INH) [10]: Not Active
Activity [11]: inactive
Activity [12]: 55%
Activity [13]: inactive
inhibition [14]: inactive
Activity [15]: inactive
inhibition [16]: inactive
inhibition (INH) [17]: Not Active
Ki [18]: 0.0054 µM
inhibition (INH) [19]: Not Active

Compound: c1ccc([C@@H]2CCC[C@H](CCNCC3CCCCC3)O2)cc1
Ki [1]: 0.036 µM
Activity [2]: inactive
Activity [3]: inactive
Activity [4]: Active
inhibition [5]: inactive
inhibition (INH) [6]: Not Active
Activity [8]: inactive
Activity [9]: inactive
inhibition (INH) [10]: Not Active
inhibition [20]: 7%
Activity [11]: inactive
Activity [12]: 53%
Activity [13]: inactive
inhibition [14]: inactive
Activity [15]: inactive
inhibition [16]: inactive
inhibition (INH) [17]: Not Active
Ki [18]: 0.0024 µM
inhibition (INH) [19]: Not Active

Compound: c1ccc([C@H]2CCC[C@@H](CCN3CCN(c4ccccc4)CC3)O2)cc1
Ki [1]: 0.131 µM
inhibition [20]: 7%
Ki [18]: 0.021 µM

Compound: c1ccc(CCCCNCC[C@@H]2CCC[C@H](c3ccccc3)O2)cc1
Ki [1]: 0.234 µM
inhibition [20]: 43%
Ki [18]: 0.015 µM

Compound: c1ccc([C@H]2CCC[C@@H](CCNCC3CCCCC3)O2)cc1
Ki [1]: 0.057 µM
Activity [2]: inactive
Activity [3]: inactive
Activity [4]: Active
inhibition [5]: inactive
inhibition (INH) [6]: Not Active
Activity [8]: inactive
Activity [9]: inactive
inhibition (INH) [10]: Not Active
inhibition [20]: 33%
Activity [11]: inactive
Activity [12]: 67%
Activity [13]: inactive
inhibition [14]: inactive
Activity [15]: inactive
inhibition [16]: inactive
inhibition (INH) [17]: Not Active
Ki [18]: 0.00095 µM
inhibition (INH) [19]: Not Active

Compound: Cc1cc(OCCN2CCOCC2)nn1-c1ccc2ccccc2c1
Activity [12]: 97%

Compound: c1ccc([C@H]2CCC[C@@H](CCN3CCCC3)O2)cc1
Ki [1]: 0.115 µM
Ki [18]: 0.06 µM

Other lines, results leading:

Ki [1]: 4 µM
inhibition [20]: 31%
Ki [18]: 0.217 µM
Compound: CN(C)CC[C@H]1CCC[C@@H](c2ccccc2)O1

Ki [1]: 2.3 µM
inhibition [20]: 37%
Ki [18]: 0.465 µM
Compound: CN(C)CC[C@@H]1CCC[C@H](c2ccccc2)O1

Ki [1]: 0.17 µM
Ki [18]: 0.031 µM
Compound: c1ccc([C@@H]2CCC[C@H](CCN3CCCC3)O2)cc1

inhibition [20]: 14%
inhibition [21]: 5%
inhibition [22]: 9%
Compound: NCC[C@@H]1CCC[C@H](c2ccccc2)O1

Ki [1]: 0.161 µM
Ki [18]: 0.057 µM
Compound: c1ccc([C@@H]2CCC[C@H](CCN3CCN(c4ccccc4)CC3)O2)cc1

inhibition [20]: 43%
inhibition [21]: 10%
inhibition [22]: 4%
Compound: NCC[C@H]1CCC[C@@H](c2ccccc2)O1

Ki [1]: 0.377 µM
inhibition [20]: 42%
Ki [18]: 0.029 µM
Compound: c1ccc(CCCCNCC[C@H]2CCC[C@@H](c3ccccc3)O2)cc1

Reference: ChEMBL document CHEMBL4814072, “Chemoenzymatic synthesis of 2,6-disubstituted tetrahydropyrans with high σ1 receptor affinity, antitumor and analgesic activity” (Eur J Med Chem, 2021)
